From patent publication US20020019394A1, “Bicyclic sulfonyl amino inhibitors of factor Xa” (priority 2000, published 2002)
Where two headings read alike, the source gives them in different places.

Assays:
TPA = TPA (Homo sapiens, UniProt P00750); assay: In vitro protease activity assay, TPA; assay type: biochemical
From the text: (§1) Evaluation of the compounds of this invention is guided by in vitro protease activity assays (see below) and in vivo studies to evaluate antithrombotic efficacy, and effects on hemostasis and hematological parameters (see below).

thrombin = thrombin (Homo sapiens, UniProt P00734); assay: Thrombin amidolytic assay (Chromozym TH)
Protocol: (§2) In the assays for thrombin, prothrombinase and factor Xa, a synthetic chromogenic substrate is added to a solution containing test compound and the enzyme of interest and the residual catalytic activity of that enzyme is determined spectrophotometrically. The IC50 of a compound is determined from the substrate turnover. […] The factor Xa and thrombin assays are performed at room temperature, in 0.02 M Tris.HCl buffer, pH 7.5, containing 0.15 M NaCl.

prothrombinase complex = prothrombinase complex (Homo sapiens, UniProt P00742); assay: Prothrombinase inhibition assay, plasma free system; assay type: biochemical
Chain of prothrombinase complex (P00742 235-488 limits assumed): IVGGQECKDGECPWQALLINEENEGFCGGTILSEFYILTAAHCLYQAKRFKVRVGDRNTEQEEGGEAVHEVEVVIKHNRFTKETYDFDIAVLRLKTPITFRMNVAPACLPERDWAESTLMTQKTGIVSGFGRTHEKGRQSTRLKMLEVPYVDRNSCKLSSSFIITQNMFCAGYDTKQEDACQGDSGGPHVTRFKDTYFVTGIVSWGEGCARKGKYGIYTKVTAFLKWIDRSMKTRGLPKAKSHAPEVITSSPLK
Chain of prothrombinase complex (P00742 41-179 limits assumed): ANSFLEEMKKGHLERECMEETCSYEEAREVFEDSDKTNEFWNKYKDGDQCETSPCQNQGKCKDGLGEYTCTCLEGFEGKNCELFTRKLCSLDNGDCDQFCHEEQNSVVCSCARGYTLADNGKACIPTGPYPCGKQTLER
Chain of prothrombinase complex (P12259 29-737 partner limits assumed): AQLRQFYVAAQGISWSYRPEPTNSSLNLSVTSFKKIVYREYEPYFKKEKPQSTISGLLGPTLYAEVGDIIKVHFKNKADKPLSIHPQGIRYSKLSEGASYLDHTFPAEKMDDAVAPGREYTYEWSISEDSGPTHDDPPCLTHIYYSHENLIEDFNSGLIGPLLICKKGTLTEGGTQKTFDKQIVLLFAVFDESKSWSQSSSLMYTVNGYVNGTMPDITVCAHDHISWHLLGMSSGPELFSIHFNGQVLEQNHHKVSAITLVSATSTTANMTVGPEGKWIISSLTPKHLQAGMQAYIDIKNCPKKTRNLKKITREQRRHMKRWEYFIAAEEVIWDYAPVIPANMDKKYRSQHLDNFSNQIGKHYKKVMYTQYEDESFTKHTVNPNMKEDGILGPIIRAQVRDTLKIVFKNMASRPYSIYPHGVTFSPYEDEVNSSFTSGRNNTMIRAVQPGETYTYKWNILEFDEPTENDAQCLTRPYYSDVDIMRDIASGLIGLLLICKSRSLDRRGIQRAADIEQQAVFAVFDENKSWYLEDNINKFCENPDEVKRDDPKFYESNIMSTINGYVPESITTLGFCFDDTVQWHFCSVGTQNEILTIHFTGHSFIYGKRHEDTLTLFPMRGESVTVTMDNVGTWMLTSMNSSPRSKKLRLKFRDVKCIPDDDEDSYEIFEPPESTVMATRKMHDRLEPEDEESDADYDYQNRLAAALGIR
Chain of prothrombinase complex (P12259 1574-2224 partner limits assumed): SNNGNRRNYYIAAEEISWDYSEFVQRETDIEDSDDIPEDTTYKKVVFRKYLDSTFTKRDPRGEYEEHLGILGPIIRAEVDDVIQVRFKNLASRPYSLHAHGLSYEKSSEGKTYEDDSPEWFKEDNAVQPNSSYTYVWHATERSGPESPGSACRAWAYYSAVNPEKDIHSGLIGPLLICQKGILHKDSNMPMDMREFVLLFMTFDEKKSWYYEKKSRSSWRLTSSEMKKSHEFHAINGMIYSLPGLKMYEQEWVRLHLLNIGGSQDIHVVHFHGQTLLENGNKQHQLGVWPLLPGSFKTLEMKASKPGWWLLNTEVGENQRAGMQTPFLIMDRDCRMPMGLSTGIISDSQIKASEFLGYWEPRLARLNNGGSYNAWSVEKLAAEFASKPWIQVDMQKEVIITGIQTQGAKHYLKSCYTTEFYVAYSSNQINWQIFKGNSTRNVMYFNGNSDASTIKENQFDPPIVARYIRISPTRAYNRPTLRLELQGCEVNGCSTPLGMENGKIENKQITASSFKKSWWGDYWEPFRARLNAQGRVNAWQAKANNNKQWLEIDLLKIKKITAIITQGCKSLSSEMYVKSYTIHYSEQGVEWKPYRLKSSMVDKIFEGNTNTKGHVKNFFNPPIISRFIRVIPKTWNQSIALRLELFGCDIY
Protocol: The prothrombinase inhibition assay is performed in a plasma free system with modifications to the method described by Sinha, U. et al., Thromb. […] Specifically, the activity of the prothrombinase complex is determined by measuring the time course of thrombin generation using the p-nitroanilide substrate Chromozym TH. […] Aliquots from the complex-inhibitor mixture are added to prothrombin (1 nM) and Chromozym TH (0.1 mM). […] Eight different concentrations of inhibitor are assayed in duplicate. A standard curve of thrombin generation by an equivalent amount of untreated complex is used for determination of percent inhibition.

PLASMIN = target: T1, PLASMIN (Homo sapiens, UniProt P00747); assay: In vitro protease activity assay, plasmin; assay type: biochemical
T1 construct: PLASMIN
T1 sequence (P00747 581-810 limits assumed, species assumed): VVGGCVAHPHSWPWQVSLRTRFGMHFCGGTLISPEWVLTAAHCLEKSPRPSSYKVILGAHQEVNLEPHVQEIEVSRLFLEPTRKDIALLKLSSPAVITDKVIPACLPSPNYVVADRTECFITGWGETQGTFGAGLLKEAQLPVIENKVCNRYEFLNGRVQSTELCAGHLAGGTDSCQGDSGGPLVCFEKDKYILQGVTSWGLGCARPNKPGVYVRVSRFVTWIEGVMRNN
T1 sequence (P00747 97-580 limits assumed, species assumed): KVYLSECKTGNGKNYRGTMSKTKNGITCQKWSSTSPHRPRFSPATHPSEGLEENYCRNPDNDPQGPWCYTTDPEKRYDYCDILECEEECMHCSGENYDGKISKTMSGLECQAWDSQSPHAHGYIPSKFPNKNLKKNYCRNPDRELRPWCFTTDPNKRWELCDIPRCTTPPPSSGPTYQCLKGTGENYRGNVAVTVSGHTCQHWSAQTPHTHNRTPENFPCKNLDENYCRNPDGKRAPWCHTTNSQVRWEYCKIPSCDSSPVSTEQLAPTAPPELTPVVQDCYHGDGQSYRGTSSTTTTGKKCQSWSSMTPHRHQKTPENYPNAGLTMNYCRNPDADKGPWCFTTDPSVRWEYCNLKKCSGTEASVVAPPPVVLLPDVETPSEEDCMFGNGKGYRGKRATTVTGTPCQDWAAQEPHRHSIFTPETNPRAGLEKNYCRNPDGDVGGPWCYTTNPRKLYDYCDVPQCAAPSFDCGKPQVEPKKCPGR
From the text: as §1

factor Xa = factor Xa (Homo sapiens, UniProt P00742); assay: Factor Xa amidolytic assay (chromogenic substrate S-2765)
Chain of factor Xa (P00742 235-488 limits assumed): as the sequence (P00742 235-488 limits assumed) above
Chain of factor Xa (P00742 41-179 limits assumed): as the sequence (P00742 41-179 limits assumed) above
Protocol: as §2

APC = APC (Homo sapiens, UniProt P04070); assay: In vitro protease activity assay, APC; assay type: biochemical
Chain of APC (P04070 212-450 limits assumed): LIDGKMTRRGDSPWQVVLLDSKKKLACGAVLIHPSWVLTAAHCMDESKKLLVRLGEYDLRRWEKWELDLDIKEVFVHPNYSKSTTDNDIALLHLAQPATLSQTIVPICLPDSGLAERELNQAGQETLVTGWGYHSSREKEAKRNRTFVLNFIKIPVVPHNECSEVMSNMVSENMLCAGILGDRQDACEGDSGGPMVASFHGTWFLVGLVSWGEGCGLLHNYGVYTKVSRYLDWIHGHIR
Chain of APC (P04070 43-197 limits assumed): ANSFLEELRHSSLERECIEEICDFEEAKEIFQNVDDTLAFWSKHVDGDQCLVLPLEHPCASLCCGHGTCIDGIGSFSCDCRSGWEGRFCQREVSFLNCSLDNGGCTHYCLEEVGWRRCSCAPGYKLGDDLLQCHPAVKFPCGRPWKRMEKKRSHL
From the text: as §1

[1] = Table 6, read-out: IC50 (nM) Prothrombinase
[2] = Table 4, read-out: IC50 (nM) Prothrombinase

Chain of TPA (P00750 36-562, species assumed): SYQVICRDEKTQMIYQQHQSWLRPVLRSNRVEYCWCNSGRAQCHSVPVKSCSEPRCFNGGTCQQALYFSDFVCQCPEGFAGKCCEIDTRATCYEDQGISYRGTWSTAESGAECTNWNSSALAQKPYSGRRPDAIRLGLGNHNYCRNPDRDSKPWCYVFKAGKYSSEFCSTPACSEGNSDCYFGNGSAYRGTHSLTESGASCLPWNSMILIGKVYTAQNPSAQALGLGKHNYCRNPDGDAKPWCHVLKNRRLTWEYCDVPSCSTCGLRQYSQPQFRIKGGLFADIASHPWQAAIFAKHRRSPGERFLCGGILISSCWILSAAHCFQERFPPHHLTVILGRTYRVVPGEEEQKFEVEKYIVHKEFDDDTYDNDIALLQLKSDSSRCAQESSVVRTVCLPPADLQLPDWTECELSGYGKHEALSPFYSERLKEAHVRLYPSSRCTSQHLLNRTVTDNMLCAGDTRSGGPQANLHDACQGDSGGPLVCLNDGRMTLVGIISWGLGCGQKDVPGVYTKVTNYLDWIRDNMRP

SMILES | IC50 (thrombin) [nM] | IC50 (prothrombinase complex; read-out: IIASE) [nM] | IC50 (factor Xa) [nM] | other results
CC(=N)N1CCC(Oc2ccc3c(c2)CCS(=O)(=O)N3Cc2ccc3ccc(C(=N)N)cc3c2)CC1 [Example 6] | 116000 | 12.2 | 12 | IC50 (TPA): 4530 nM; IC50 (PLASMIN): 2360 nM; IC50 (APC): 3850 nM
N=C(N)c1ccc2ccc(CN3c4ccc(OC5CCNCC5)cc4C=CS3(=O)=O)cc2c1 [Example 1] | 136000 | 15800 | 1030 | –
CC(=N)N1CCC(Oc2ccc3c(c2)C=CS(=O)(=O)N3Cc2ccc3ccc(C(=N)N)cc3c2)CC1 [Example 2] | 117000 | 64.6 | 6.41 | IC50 (TPA): 1600 nM; IC50 (PLASMIN): 2350 nM; IC50 (APC): 1880 nM
CC(=N)N1CCC(Oc2ccc(N(Cc3cc4cc(C(=N)N)ccc4n3C)S(C)(=O)=O)cc2)CC1 [Compound 15] | 11800 | – | 30.6 | IC50 (prothrombinase complex; [2]): 66.5 nM
CC(=N)N1CCC(Oc2ccc(N(Cc3cc4cc(C(=N)N)ccc4s3)S(=O)(=O)CC(=O)O)cc2)CC1 [Compound 43] | 193000 | – | 3.5 | IC50 (prothrombinase complex; [1]): 7.6 nM
CC(=N)N1CCC(Oc2ccc(N(Cc3cccc(-c4cccc(C(=N)N)c4)c3)S(C)(=O)=O)cc2)CC1 [Compound 3] | 133000 | – | – | –
CS(=O)(=O)N(Cc1ccc2ccc(C(=N)N)cc2c1)c1ccc(C(=O)N2CCCC2C(N)=O)cc1 (stereo not shown) [Example 24] | – | – | – | IC50 (factor Xa; read-out: XA, Examples 1-26 table): 3440 nM
CC(=N)N1CCC(Oc2ccc(N(Cc3ccc(-c4cccc(C(=N)N)c4)cc3)S(C)(=O)=O)cc2)CC1 [Compound 12] | > 11000 | – | 25.2 | IC50 (prothrombinase complex; Table 3, read-out: IC50 (nM) Prothrombinase): 730 nM
CC(=N)N1CCC(Oc2ccc(N(Cc3cc(C)nn3-c3cccc(C(=N)N)c3)S(C)(=O)=O)cc2)CC1 [Compound 16] | > 11000 | – | – | –
NC(=O)c1ccc2ccc(CN3c4ccc(OC5CCNCC5)cc4CCS3(=O)=O)cc2c1 [Example 5] | – | 1290 | 1310 | –
CS(=O)(=O)N(Cc1ccc2ccc(C(=N)N)cc2c1)c1ccc(C(=O)N2CCC[C@H]2C(N)=O)cc1 [Compound 25] | 146000 | – | 4060 | IC50 (prothrombinase complex; Table 5, read-out: IC50 (nM) Prothrombinase): 95000 nM
N=C(N)c1ccc2ccc(CN3c4ccc(OC5CCNCC5)cc4CCS3(=O)=O)cc2c1 [Example 4] | 256000 | 2000 | 1180 | –
CC(=N)N1CCC(Oc2ccc(N(Cc3cc(C)n(-c4cccc(C(=N)N)c4)n3)S(C)(=O)=O)cc2)CC1 [Compound 17] | > 11000 | – | – | –

The next lines start with results.

IC50 (thrombin) [nM] | IC50 (prothrombinase complex; read-out: IIASE) [nM] | IC50 (factor Xa) [nM] | SMILES | other results
39200 | – | 3.6 | CC(=N)N1CCC(Oc2ccc(N(Cc3cccc(-c4cccc(C(=N)N)c4)c3)S(=O)(=O)CC(=O)O)cc2)CC1 [Compound 41] | IC50 (prothrombinase complex; [1]): 6.6 nM
12000 | – | 9.1 | CCOC(=O)CS(=O)(=O)N(Cc1cc2cc(C(=N)N)ccc2s1)c1ccc(OC2CCN(C(C)=N)CC2)cc1 [Compound 42] | IC50 (prothrombinase complex; [1]): 8.4 nM
24800 | 33.2 | 15.3 | N=C(N)c1ccc2ccc(CN3c4ccc(OC5CCN(C(=N)N)CC5)cc4CCS3(=O)=O)cc2c1 [Example 7] | IC50 (TPA): 5960 nM; IC50 (PLASMIN): 2230 nM; IC50 (APC): 3370 nM
30900 | – | – | CC(=N)N1CCC(Oc2ccc(N(Cc3cc4cc(C(=N)N)ccc4s3)S(C)(=O)=O)cc2)CC1 [Compound 13] | –
16700 | 10 | 11.3 | N=C(N)c1ccc2ccc(CN3c4ccc(OC5CCN(C(=N)N)CC5)cc4C=CS3(=O)=O)cc2c1 [Example 3] | IC50 (TPA): 1210 nM; IC50 (PLASMIN): 1140 nM; IC50 (APC): 895 nM
95200 | – | 6.3 | CC(=N)N1CCC(Oc2ccc(N(Cc3ccc4ccc(C(=N)N)cc4c3)S(C)(=O)=O)cc2)CC1 [Compound 2] | IC50 (prothrombinase complex; [2]): 7 nM
